Series [1] deals with T1, equine butyrylcholinesterase (eqBChE) (Equus caballus, UniProt P81908).
T1 construct: purchased
Put plainly: Butyrylcholinesterase inhibition (adapted Ellman's method). Format: biochemical. To be noted: for SI (selectivity index): SI = IC50 (AChE)/IC50 (BChE); for IC50: eqBChE, read-out: BChE Inhib IC50. As to the method: (§1) The enzyme inhibition of electric eel acetylcholinesterase (eeAChE) and equine butyrylcholinesterase (eqBChE) was performed according to an adaptation of Elmman’s method. Stock solutions of 1 mg of each compound in 1 mL MeOH were prepared, and adequate dilutions were further made for each ligand. A control measurement (5 replicates without a ligand) and a calibration curve of 5 points with 3 replicates per point were conducted. Each solution included fixed volumes of 4-(2-hydroxyethyl)-1-piperazine-ethanesulfonic acid (HEPES) and cholinesterase (eeAChE or eqBChE), with different volumes of ligand solution. A blank solution containing HEPES and MeOH was also prepared at the same time. After 15 min of reaction, […] (AChI) or butyrylcholine iodide (BChI) and 5,5’-dithiobis-(2-nitrobenzoic acid) (DTNB) were added to both solutions contained in spectrophotometer cuvettes, and the absorbance at 405 nm was recorded for 5 min (time interval = 1 s, slid width = 1 nm). The slope for each calibration point (absorbance versus reaction time) was determined, and the percent inhibition was calculated by using the equation: %Inhibition=100−(vi/v0×100). where vi is the reaction rate (slope) for each point of the calibration with the ligand, and v0 is the initial reaction rate (slope) for the control point (without ligand). Finally, the five-point linear regression (10–50 µL of ligand solution) corresponding to the percentage of enzyme inhibition vs. the compound concentration allowed for the determination of the half maximal inhibitory concentration (IC50, µM) (compound concentration for which enzyme activity is reduced to half). Experiments were performed twice for each ligand. Statistical analysis was performed by a one-way analysis of variance (ANOVA) with a significance threshold set at p < 0.05.
In general terms: Ellman's reagent forms a yellow product with free thiols.

Series [2] in a line: Free-radical-scavenging assay (DPPH method). The note with it: for % AA (radical-scavenging activity): compound concentration 100 μM; for EC50: read-out: AA EC50. As to the method: The percentage of radical-scavenging activity (%AA, antioxidant capacity) of the RIV hybrids was first determined by the 2,2-diphenyl-1-picrylhydrazyl (DPPH) method using a compound concentration of 100 μM. […] Each calibration point was kept 30 min in darkness, and afterwards, the absorbance was measured at 517 nm. The corresponding antioxidant activity (%AA) was calculated using the equation %AA=ADPPH−Aligand/ADPPH×100. From the plot of %AA versus ligand concentration, EC50 was determined. Three independent experiments were performed, and a statistical analysis was conducted by a one-way analysis of variance (ANOVA) with the significance threshold set at p < 0.05.
The RIV hybrids were screened for their radical-scavenging activity by using the DPPH method. These assays were conducted in two stages: first, preliminary analyses were performed for all the compounds to evaluate the percentage of radical-scavenging activity by using a compound concentration of 100 μM. Afterwards, the compounds showing more than 50% antioxidant activity (AA), under those conditions, were further assessed to evaluate the respective EC50 values.

In series [3] the test system is SH-SY5Y human neuroblastoma cell line. Description: Protection against iron/ascorbate-induced toxicity (MTT). The note with it: 1 h pre-treatment at highest nontoxic concentration, then 24 h with Fe/Asc. Format: cell-based. The method, then: (§2) Cell viability was assessed using the colorimetric MTT (3-(4,5-dimethylthiazol-2-yl)-2,5-diphenyltetrazolium bromide) assay, as previously described.
(§3) The compounds’ solutions (4AY1-6, 4BY1-3, and 4CY1) were prepared in DMSO to create stock solutions at a concentration of 25 mM, which were then stored at −20 °C. A concentration range from 0.5 µM to 20 µM was screened to identify the highest non-toxic dose. The SH-SY5Y human neuroblastoma cell line (ATCC-CRL-2266) was grown in Dulbecco’s modified Eagle’s medium (DMEM) (Thermo Fisher Scientific-Gibco, Waltham, MA, USA) supplemented with 10% heat-inactivated fetal calf serum, 50 U/mL penicillin, and 50 µg/mL streptomycin at 37 °C in a 5% CO2 atmosphere. The cells were seeded at a density of 0.1 × 10^6 cells/mL (when 48-well plates were used) or 0.15 × 10^6 cells/mL (when 24-well plates were used) one day before the experiment commenced. Following the seeding, the cells were treated with the selected concentrations of compounds for 24 h. After treatment, the cells were washed with PBS and incubated with 150 µL (in 48-well plates) or 200 µL (in 24-well plates) of MTT (0.5 mg/mL) for 2 h at 37 °C with 5% CO2. During this incubation, cellular dehydrogenases converted MTT into formazan crystals, which were subsequently dissolved in 150 µL (in 48-well plates) or 200 µL (in 24-well plates) of 0.04 M HCl/isopropanol, and the absorbance was measured at 570 nm.
To evaluate the compounds’ protective effects against toxicity induced by Aβ1–42 or iron/ascorbate, the cells were pre-treated with each compound for one hour before adding Aβ1–42 or iron/ascorbate, followed by an additional 24-h incubation. Aβ1–42 (Bachem, Torrance, CA, USA) was prepared in sterile water to create a 443 µM stock solution and was added to the cells at a final concentration of 1 µM. Ferrous sulfate and L-ascorbic acid (Sigma Chemical Co., St. Louis, MO, USA) were introduced into the medium at final concentrations of 5 mM and 2.5 mM, respectively. […]

For series [4] the test system is unchanged. Description: Cell viability dose-response screening (MTT). In kind it is cell-based. The note with it: 24 h. The method, then:
as §2, §3

The target of series [5] is T2, Aβ1–42 (Homo sapiens, UniProt P05067).
T2 construct: the Aβ1–42 peptide (Shanghai Royobiotech Co., Ltd., Shanghai, China); purchased Shanghai Royobiotech Co., Ltd
Put plainly: Inhibition of Aβ1–42 self-aggregation (ThT fluorescence). Format: biochemical. The note with it: read-out: % Aβ42 Self-Agg Inhib. The method, then: Firstly, the Aβ1–42 peptide (Shanghai Royobiotech Co., Ltd., Shanghai, China) was treated with 1,1,1,3,3,3-hexafluoropropan-2-ol (HFIP) and then dissolved in a CH3CN/Na2CO3 (300 μM)/NaOH (250 μM) (48.3:48.3:4.3, v/v/v) mixture in order to obtain a stable stock solution (500 μM).
Solutions of 1 mg of the assayed compounds in 2 mL of 1:1 (v/v) DMSO/MeOH (0.5 mg/mL) medium were prepared and then properly diluted with phosphate buffer (0.215 M, pH 8.0) to obtain a 120 μM final concentration. The Aβ1–42 self-aggregation inhibition assays were made based on a reported method, involving the fluorescence emission of thioflavin T (ThT). So, Aβ1–42 (40 μM) was incubated at 37 °C for 24 h in phosphate buffer and in the presence or absence of each ligand (40 μM for all compounds but 4AY4 and 4CY1, for which 20 μM was used). Then, […] 5 μM ThT in 50 mM glycine-NaOH (pH 8.5) buffer were added to each sample before transferring the samples to a 96-well microplate. Blank samples were also prepared without Aβ1–42. The ThT fluorescence was measured (446 and 485 nm excitation and emission wavelengths, respectively), and the percent of self-aggregation inhibition was determined by the equation:I% = 100 − (IFi/IF0 × 100) where IFi and IF0 are the fluorescence intensities, in the presence and the absence of the assayed compound, subtracted from the fluorescence intensities due to the respective blanks. The calculated values were obtained as the mean ± SEM of four different experiments conducted in duplicate. Statistical analysis was performed by a one-way analysis of variance (ANOVA) with a significance threshold set at p < 0.05.

In series [6] the target is T3, electric eel acetylcholinesterase (eeAChE) (Electrophorus electricus, UniProt O42275).
T3 construct: purchased
Description: Acetylcholinesterase inhibition (adapted Ellman's method). In kind it is biochemical. The note with it: read-out: AChE Inhib IC50. As to the method:
as §1

Here are results for 10 compounds from PMC12383012 (Antioxidants, 2025).

“Also recorded” adds a separate entry of the source.

T3 sequence (O42275 24-633): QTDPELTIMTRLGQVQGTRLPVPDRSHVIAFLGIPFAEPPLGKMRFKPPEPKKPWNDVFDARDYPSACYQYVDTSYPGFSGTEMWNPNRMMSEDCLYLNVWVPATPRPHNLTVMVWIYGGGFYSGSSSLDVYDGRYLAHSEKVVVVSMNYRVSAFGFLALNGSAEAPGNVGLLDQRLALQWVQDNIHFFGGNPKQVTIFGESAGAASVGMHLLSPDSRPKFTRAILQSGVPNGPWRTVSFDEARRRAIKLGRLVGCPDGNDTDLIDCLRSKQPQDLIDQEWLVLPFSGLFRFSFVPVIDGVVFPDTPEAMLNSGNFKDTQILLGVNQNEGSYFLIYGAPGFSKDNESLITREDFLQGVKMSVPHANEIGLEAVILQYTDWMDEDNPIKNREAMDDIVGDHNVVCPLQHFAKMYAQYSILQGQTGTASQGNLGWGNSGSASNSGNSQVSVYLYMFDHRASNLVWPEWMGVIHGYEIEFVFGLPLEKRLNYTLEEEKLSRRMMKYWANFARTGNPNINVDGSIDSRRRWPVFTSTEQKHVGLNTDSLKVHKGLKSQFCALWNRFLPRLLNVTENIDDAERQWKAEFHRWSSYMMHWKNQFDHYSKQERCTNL
T1 sequence (P81908 whole entry): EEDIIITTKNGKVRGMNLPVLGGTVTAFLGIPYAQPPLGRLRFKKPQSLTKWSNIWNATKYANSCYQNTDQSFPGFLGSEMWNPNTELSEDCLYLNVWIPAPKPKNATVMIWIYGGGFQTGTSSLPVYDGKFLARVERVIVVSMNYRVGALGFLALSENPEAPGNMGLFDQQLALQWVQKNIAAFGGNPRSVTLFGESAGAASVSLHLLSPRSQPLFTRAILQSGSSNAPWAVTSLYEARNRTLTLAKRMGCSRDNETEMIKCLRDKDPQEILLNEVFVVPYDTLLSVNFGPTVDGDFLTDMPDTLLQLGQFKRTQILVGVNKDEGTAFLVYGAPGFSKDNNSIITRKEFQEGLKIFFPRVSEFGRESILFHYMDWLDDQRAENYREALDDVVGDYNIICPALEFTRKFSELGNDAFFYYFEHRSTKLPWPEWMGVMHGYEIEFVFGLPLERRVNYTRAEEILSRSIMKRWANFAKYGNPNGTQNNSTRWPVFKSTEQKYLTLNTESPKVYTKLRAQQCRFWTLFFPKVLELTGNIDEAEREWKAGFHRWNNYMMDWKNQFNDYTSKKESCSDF
T2 sequence (P05067 672-713): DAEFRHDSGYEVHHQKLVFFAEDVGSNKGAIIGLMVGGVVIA

In general, IC50 refers to the concentration that gives 50% inhibition. One may read the EC50 as the concentration that produces a half-maximal response. As to `CCN(C)C(=O)Oc1cccc(CNC(=O)C2(C)CCc3c(C)c(O)c(C)c(C)c3O2)c1` (stereo not drawn) [4BY2, 3-((6-Hydroxy-2,5,7,8-tetramethylchromane-2-carboxamido)methyl)phenyl ethyl(methyl)carbamate], in series [1], the “SI (selectivity index)” value was determined as 8.6 and the IC50 came out at 3.7 ± 0.1 µM. In series [2], the “% AA (radical-scavenging activity)” value was found to be 93.9 ± 0.4% and the half-maximal effective concentration (EC50) was determined as 20 ± 0.8 µM. Besides, the “rescue of cell viability after iron/ascorbate treatment” value in series [3] is “capable of rescuing the cell viability; also recorded: significantly improved cell viability”. Besides, the highest nontoxic concentration in series [4] is 1 µM. Besides, the inhibition at 40 µM in series [5] stood at 47 ± 3%. In series [6], the IC50 worked out at 32 ± 2 µM.
Turning to `CCN(C)C(=O)Oc1cccc(NC(=O)c2cc(OC)c(O)c(OC)c2)c1` [4AY1, 3-(4-Hydroxy-3,5-dimethoxybenzamido)phenyl ethyl(methyl)carbamate], the IC50 in series [1] is 31 ± 2 µM; in series [6], above 200 µM. Moreover, the “% AA (radical-scavenging activity)” value in series [2] is given as below 50%. The compound also came in with a highest nontoxic concentration in series [4] of 10 µM. Further, in series [5], the inhibition at 40 µM came to 20 ± 2%.
Turning to `CCN(C)C(=O)Oc1cccc(NC(=O)/C=C/c2ccc(O)c(O)c2)c1` [4AY5, (E)-3-(3-(3,4-Dihydroxyphenyl)acrylamido)phenyl ethyl(methyl)carbamate], in series [1], the “SI (selectivity index)” value amounted to 15.3 and the IC50 came to 7.2 ± 0.3 µM. Further, in series [2], the “% AA (radical-scavenging activity)” value worked out at 96 ± 2% and the EC50 amounted to 15.7 ± 0.4 µM. In series [4], the highest nontoxic concentration is 0.5 µM. Also, in series [5], the inhibition at 40 µM came out at 82 ± 5%. Moreover, the IC50 in series [6] worked out at 110 ± 5 µM.
On to `Cc1c(C)c2c(c(C)c1O)CCC(C)(C(=O)O)O2` (stereo not drawn) [Trolox, 6-hydroxy-2,5,7,8-tetramethylchromane-2-carboxylic acid, reference compound], for which the EC50 in series [2] is 13.8 ± 0.2 µM.
`CCN(C)C(=O)Oc1cccc(NC(=O)/C=C/c2ccc3c(c2)OCO3)c1` [4AY3, (E)-3-(3-(Benzo[d][1,3]dioxol-5-yl)acrylamido)phenyl ethyl(methyl)carbamate]: in series [1], the “SI (selectivity index)” value came out at 16.3 and the half-inhibitory concentration (IC50) is 3.1 ± 0.4 µM. The “% AA (radical-scavenging activity)” value in series [2] was below 50%. Further, in series [4], the highest nontoxic concentration was found to be 5 µM. Moreover, in series [5], the inhibition at 40 µM turned out to be 45 ± 4%. In addition, the IC50 in series [6] came out at 50.5 ± 0.1 µM.
Regarding `CCN(C)C(=O)Oc1cccc(CNC(=O)/C=C/c2ccc3c(c2)OCO3)c1` [4BY3, (E)-3-((3-(Benzo[d][1,3]dioxol-5-yl)acrylamido)methyl)phenyl ethyl(methyl)carbamate], in series [1], the “SI (selectivity index)” value was found to be 101 and the IC50 was found to be 0.9 ± 0.2 µM. Further, the “% AA (radical-scavenging activity)” value in series [2] is given as below 50%. The compound also returned a highest nontoxic concentration in series [4] of 1 µM. Further, the inhibition at 40 µM in series [5] worked out at 29 ± 3%. In series [6], the IC50 is 91 ± 6 µM.
In the case of `COc1cc(C(=O)Nc2cccc(OC(=O)N(C)C)c2)cc(OC)c1O` [4CY1, 3-(4-Hydroxy-3,5-dimethoxybenzamido)phenyl dimethylcarbamate], the IC50 in series [1] was 68 ± 7 µM; in series [6], above 200 µM. The “% AA (radical-scavenging activity)” value in series [2] is recorded as below 50%. In series [4], this compound showed a highest nontoxic concentration of 5 µM. Also, the inhibition at 20 µM in series [5] (24 h) turned out to be 31 ± 3%.
For `COc1cc(/C=C/C(=O)CC(=O)/C=C/c2ccc(O)c(OC)c2)ccc1O` [Curcumin, reference compound], in series [5], the inhibition at 40 µM came to 77 ± 1%.
For the compound `CCN(C)C(=O)Oc1cccc(NC(=O)/C=C/C=C/c2ccc(O)c(O)c2)c1` [4AY6, 3-((2E,4E)-5-(3,4-Dihydroxyphenyl)penta-2,4-dienamido)phenyl ethyl(methyl)carbamate], in series [1], the “SI (selectivity index)” value is 0.9 and the IC50 was 5.7 ± 0.6 µM. For the same compound, in series [2], the “% AA (radical-scavenging activity)” value came to 93.1 ± 0.8% and the EC50 stood at 28 ± 0.4 µM. In series [4], the highest nontoxic concentration is reported as 1 µM. The inhibition at 40 µM in series [5] was 75 ± 7%. Further, in series [6], the IC50 was found to be 5 ± 1 µM.
For `CCN(C)C(=O)Oc1cccc(CNC(=O)c2cc(OC)c(O)c(OC)c2)c1` [4BY1, 3-((4-Hydroxy-3,5-dimethoxybenzamido)methyl)phenyl ethyl(methyl)carbamate], the results for the 50% inhibitory concentration (IC50) in series [1] and in series [6] were 75 ± 0.6 µM and above 200 µM, respectively. In addition, the “% AA (radical-scavenging activity)” value in series [2] is on record as below 50%. The highest nontoxic concentration in series [4] worked out at 15 µM. In series [5], the inhibition at 40 µM turned out to be 58 ± 6%.
